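Grown in 96-well plates, cells were treated for 48 hours with each compound at five concentrations. Insufficient inhibition: endpoint recorded as highest concentration tested. Here, GI50 denotes the concentration required for 50% inhibition of growth. TGI denotes the concentration required for complete inhibition of growth.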
Assays:
Assay in all cases: growth of human tumour cells (NCI), 48 h
SF-539 CNS = system: SF-539 CNS
KM12 colon = system: KM12 colon
NCI-H460 lung = system: NCI-H460 lung
SK-MEL-2 melanoma = system: SK-MEL-2 melanoma
SR leukemia = system: SR leukemia
RPMI-8226 leukemia = system: RPMI-8226 leukemia
OVCAR-5 ovarian = system: OVCAR-5 ovarian
EKVX NSCLC = system: EKVX NSCLC
NCI-H226 lung = system: NCI-H226 lung
CCRF-CEM leukemia = system: CCRF-CEM leukemia

Row | Structure (SMILES) | TGI (SF-539 CNS) | TGI (KM12 colon) | TGI (NCI-H460 lung) | TGI (SK-MEL-2 melanoma) | TGI (SR leukemia) | TGI (RPMI-8226 leukemia) | TGI (OVCAR-5 ovarian) | TGI (EKVX NSCLC) | TGI (NCI-H226 lung) | TGI (CCRF-CEM leukemia) | GI50 (SF-539 CNS) | GI50 (NCI-H460 lung) | GI50 (SK-MEL-2 melanoma) | GI50 (OVCAR-5 ovarian) | GI50 (EKVX NSCLC) | GI50 (KM12 colon) | GI50 (CCRF-CEM leukemia) | GI50 (RPMI-8226 leukemia)
1 | COc1ccc(CNc2nc(NCc3ccc(OC)cc3)nc(N3CCOCC3)n2)cc1 | 19.2 µM | 8.09 µM | > 100 µM | > 100 µM | 4.92 µM | 4.03 µM | 41.6 µM | > 100 µM | > 100 µM |  |  |  |  |  |  |  |  | 
2 | CC1(C)[C@@H]2C[C@H]1c1cnc(-c3ccccn3)cc1C2[C@@H]1c2cc(-c3ccccn3)ncc2[C@@H]2C[C@H]1C2(C)C (some centres not stated) |  | > 100 µM | > 100 µM | > 100 µM | > 100 µM | > 100 µM | > 100 µM | > 100 µM | > 100 µM | > 100 µM |  |  |  |  |  |  |  | 
3 | N#CC1=CNc2sccc2S1(=O)=O | > 100 µM | > 100 µM | > 100 µM | > 100 µM |  | > 100 µM | > 100 µM | > 100 µM | > 100 µM |  |  |  |  |  |  |  |  | 
4 | CC1=CC[C@@H]2CC[C@]3(C)[C@H](CC[C@@H]4[C@@]5(C)CCCNC(C)(C)[C@@H]5CC[C@]43C)[C@H]2[C@@H]1C | 3.13 µM |  | 3.09 µM | 3.48 µM |  |  | 3.07 µM | 3.38 µM |  |  | 1.69 µM | 1.48 µM | 1.81 µM | 1.67 µM | 1.74 µM |  |  | 
5 | CCOC(=O)c1cn(-c2ccc(Cl)cc2)c(=O)n2c1nc1ccccc12 | > 100 µM | > 100 µM | > 100 µM | > 100 µM | > 100 µM | > 100 µM | > 100 µM | > 100 µM | > 100 µM | > 100 µM |  |  |  |  |  |  |  | 
6 | COC(OC)C(O)C1OC=CC1n1cnc2c(N)ncnc21 (configuration not stated) | > 100 µM | > 100 µM | > 100 µM | > 100 µM | > 100 µM | > 100 µM |  | > 100 µM | > 100 µM | > 100 µM |  |  |  |  |  |  |  | 
7 | CCOC(=O)c1sc2c(c1OC(=O)c1ccccc1)c(=O)n(-c1ccccc1)c(=S)n2-c1ccccc1 | 47.7 µM | > 100 µM | 41.5 µM |  |  | > 100 µM | > 100 µM | > 100 µM | > 100 µM | > 100 µM |  |  |  |  |  |  |  | 
8 | Nc1nc2c(ncn2C2C=CC(CO)O2)c(=O)[nH]1 (configuration not stated) |  | > 100 µM | > 100 µM | > 100 µM | > 100 µM | > 100 µM | > 100 µM |  | > 100 µM | > 100 µM |  |  |  |  |  |  |  | 
9 | CCOC(=O)C(O)(NC(C)=O)C(F)(F)F (configuration not stated) | > 100 µM | > 100 µM |  | > 100 µM | > 100 µM | > 100 µM | > 100 µM | > 100 µM | > 100 µM | > 100 µM |  |  |  |  |  |  |  | 
10 | O=C(O)c1ccc(Nc2nc3cc(C(F)(F)F)ccc3nc2C(=O)O)cc1 |  | > 100 µM | > 100 µM | > 100 µM | > 100 µM |  | > 100 µM | > 100 µM | > 100 µM |  |  |  |  |  |  |  |  | 
11 | O=[As](O)(O)c1cc(N=Nc2ccc(-c3ccc(N=Nc4cc([As](=O)(O)O)c(O)cc4O)cc3)cc2)c(O)cc1O | > 100 µM | > 100 µM | > 100 µM | > 100 µM | > 100 µM | > 100 µM | 97.6 µM | > 100 µM | > 100 µM | > 80 µM |  |  |  |  |  |  |  | 
12 | COc1cc(C2C3=C(COC3=O)OC(C)(C)Oc3cc4c(cc32)OCO4)cc(OC)c1OC (configuration not stated) | 0.582 µM | 14.8 µM | > 100 µM | 70.1 µM |  | > 87.3 µM | > 100 µM | > 100 µM | > 100 µM |  |  |  |  |  |  |  |  | 
13 | N#CCCN(CCCN(C(=O)Nc1ccccc1)c1ccccc1)C(=O)Nc1ccccc1 | > 100 µM | > 100 µM | > 100 µM | > 100 µM | > 100 µM | > 100 µM | > 100 µM | > 100 µM | > 100 µM | > 100 µM |  |  |  |  |  |  |  | 
14 | Cc1ccc(O)c(C2=NNC(c3cccc(Br)c3)C2)c1 (configuration not stated) | > 100 µM | > 100 µM | > 100 µM | > 100 µM | > 100 µM | > 100 µM | > 100 µM | > 100 µM | > 100 µM | > 100 µM |  |  |  |  |  |  |  | 
15 | CCOC(=O)C1=C(C)NC(=S)NC1c1cccc(O)c1 (configuration not stated) | > 100 µM | > 100 µM | > 100 µM | 79 µM | > 95.6 µM | > 97 µM | > 100 µM | > 100 µM | > 100 µM | > 89.9 µM |  |  |  |  |  |  |  | 
16 | CC[N+](CC)=c1ccc2nc3c(cc(N)c4ccccc43)oc-2c1 | 0.32 µM | 0.666 µM |  | 2.25 µM |  | 0.399 µM | 0.495 µM |  |  |  | 0.174 µM |  | 0.968 µM | 0.24 µM |  | 0.247 µM | 0.183 µM | 0.0412 µM
17 | CC[N+](C)(CC)CCN1C(=O)c2ccccc2S1(=O)=O | > 100 µM | > 100 µM | > 100 µM | > 100 µM |  | > 100 µM | > 100 µM | > 100 µM | > 100 µM | > 100 µM |  |  |  |  |  |  |  | 
18 | CC#CC(O)(C(=O)OC1CCCN(C)C1)C1=CC=CCC1 (configuration not stated) | > 100 µM | > 100 µM | > 100 µM | > 100 µM | > 100 µM | > 100 µM | > 100 µM | > 100 µM | > 100 µM | > 100 µM |  |  |  |  |  |  |  | 
19 | CN(C(=O)c1ccc(Cl)s1)C(=S)N(C)C(=O)c1ccc(Cl)s1 | > 10 µM | > 10 µM | > 10 µM | > 10 µM | > 10 µM | > 10 µM | > 10 µM | > 10 µM | > 10 µM | > 10 µM |  |  |  |  |  |  |  | 
20 | CN1CC(c2ccccc2)N(CCCCN2CC(c3ccccc3)N(C)CC2c2ccccc2)CC1c1ccccc1 (configuration not stated) | > 100 µM | > 100 µM | > 100 µM | 81.2 µM | > 100 µM |  | > 100 µM | > 100 µM | > 100 µM | > 100 µM |  |  |  |  |  |  |  | 
21 | O=C(NCCNCCO)N/N=C/c1ccc(Cl)cc1 | > 100 µM | > 100 µM | > 100 µM | > 100 µM | > 100 µM |  | > 100 µM |  | > 100 µM | > 100 µM |  |  |  |  |  |  |  | 

Source: PubChem BioAssay (NCI)
